Results taken from PMC10303846, “In vitro antiplasmodial activity and toxicological profile of extracts, fractions and chemical constituents of leaves and stem bark from Dacryodes edulis (Burseraceae)” (BMC Complementary Medicine and Therapies, 2023).
≈ marks a conversion by molar mass, not a printed value. Like-named read-outs stand apart in the source and are kept apart here.

Experiments:
[1] = system: chloroquine-sensitive Pf3D7 (MRA-102) P. falciparum strain; experiment: SYBR green I-based fluorescence P. falciparum growth inhibition assay, Pf3D7; type: cell-based; settings: Plasmodium falciparum, read-out: IC50 ± SD Pf3D7
Procedure: (§1) The chloroquine-sensitive Pf3D7-(MRA-102) and chloroquine-resistant PfDd2-(MRA-150) P. falciparum strains were maintained as previously described in fresh O^+ human red blood cells at 4% haematocrit in complete RPMI 1640 medium [500 mL RPMI 1640 (Gibco, UK) supplemented with 25 mM HEPES (Gibco, UK), […] (Gibco, USA), 1X hypoxanthine (Gibco, USA) and […] gentamicin (Gibco, China)] and incubating at 37 °C in a humidified atmosphere with 5% CO2. The medium was renewed daily to propagate the culture. Giemsa-stained thin blood smears were examined microscopically under immersion oil to monitor cell-cycle transition and parasitemia evolution. O^+ human red blood cells were obtained from a consent volunteer donor (Supplementary material).
(§2) Before each experiment, synchronized ring-stage parasite were obtained by 5% sorbitol (w/v) treatment with respect to Lambros and Vanderberg, 1979 [12]. It is crucial to note that, using cultures over mixed stage cultures can enable the test molecules to interact with all three stages (ring, trophozoite, and schizont) of the 48 h long life cycle of P. falciparum in culture.
(§3) A drug sensitivity assay was carried out in 96-well microtitration plates using a SYBR green I-based fluorescence assay. This assay is specifically based on the ability of SYBR green to give strong fluorescence only in the presence of parasite DNA during cell proliferation.
(§4) Shortly, sorbitol-synchronized ring stage parasites (hematocrit: 1%, parasitemia: 2%, 90 μl) under normal culture conditions were incubated in the presence of prediluted extracts, fractions, isolated compounds and reference drug (10 μL) followed by incubation at 37℃ for 72 h. After incubation, 100 μL of SYBR Green I buffer [6 μL of 10,000 × SYBR Green I (Invitrogen) + 600 μL of Red Blood Cells lysis buffer {Tris (25 mM; pH 7.5)} + 360 μL of EDTA (7.5 mM) + 19,2 μL of parasites lysis solution {saponin (0.012%; wt/vol)} and 28,8 μL of Triton X-100 (0.08%; vol/vol)}] was added to each well, mixed twice gently with a multichannel pipette and incubated in the dark at 37℃ for 1 h. Fluorescence was measured using a TECAN M 200 Microplate reader with excitation and emission at 485 and 538 nm, respectively. The fluorescence counts were plotted against the logarithm of the sample concentration and the 50% inhibitory concentration (IC50) was determined by analysis of dose–response curves using GraphPad Prism 5.0. Experiments were performed in duplicate.

[2] = system: chloroquine-resistant (multidrug-resistant) PfDd2 (MRA-150) P. falciparum strain; experiment: SYBR green I-based fluorescence P. falciparum growth inhibition assay, PfDd2; type: cell-based, Plasmodium falciparum; settings: for IC50: Plasmodium falciparum, read-out: IC50 ± SD PfDd2; for antiplasmodial activity class on PfDd2: class by IC50 criteria of b51, Dd2 strain only
Procedure: as §1, §2, §3, §4

[3] = system: chloroquine-resistant (Dd2) strain of P. falciparum; settings: Zofou and colleagues (2013) ref 9; cited from earlier work
[4] = Resazurin-based in vitro cytotoxicity assay; type: cell-based; settings: mouse
Procedure: The cytotoxicity profile of extracts, fractions and isolated compounds was assessed using the resazurin-based assay essentially as previously described against RAW 264.7 cells duly cultivated in complete Dulbecco′s Modified Eagle′s Medium (DMEM) that contain 13.5 g/L of DMEM (Sigma Aldrich), 10% fetal bovine serum (Sigma Aldrich), 0.2% sodium bicarbonate (w/v) (Sigma Aldrich) and 50 μg/mL of gentamicin (Sigma Aldrich). Globally, macrophages (Raw cells) were seeded into 96-well cell-culture flat-bottomed plates at a density of 10^4 cells in 100 μL of complete medium/well and placed in incubation for 24 h at 37℃, and 5% CO2 allowing cell adhesion. Following cell adhesion, ten microliters of each serially diluted test sample solution was added to assay plates and left in incubation for 48 h under the same experimental conditions. Growth control (1% DMSO-100% growth) and positive control wells (podophyllotoxin at 20 μM) were included in the experimental plates. Cell proliferation was checked by adding 10 μL of a stock solution of resazurin (0.15 mg/mL in sterile PBS) to each well followed by an additional incubation of 4 h in the same culture conditions. Fluorescence was then read using Tecan Infinite M200 fluorescence multiwell plate reader (Tecan) at an excitation/emission of 530/590 nm. The results were expressed as 50% cytotoxic concentrations (CC50) and selectivity indices (CC50 Mammalian cell/IC50 Pf3D7) were calculated for each test substance.

[5] = system: P. falciparum 3D7 and Dd2 strains; experiment: SYBR green antiplasmodial assay, results stated for both strains together; type: cell-based, Plasmodium falciparum; settings: for Resistance Index (RI): PfDd2 versus Pf3D7; for antiplasmodial activity class on both Pf3D7 and PfDd2: class by IC50 criteria of b51
Source text: The medium was renewed daily to propagate the culture. Giemsa-stained thin blood smears were examined microscopically under immersion oil to monitor cell-cycle transition and parasitemia evolution. O^+ human red blood cells were obtained from a consent volunteer donor (Supplementary material).
as §2, §3, §4

[6] = reference drugs, unit nM printed with the name
[7] = Raw cells, 48 h, resazurin, read-out: CC50
[8] = SYBr Green based assay, 72 h, chloroquine-sensitive strain
[9] = SYBr Green based assay, 72 h, multidrug-resistant strain

SMILES	IC50 [1, 8] [µg/mL]	IC50 [2, 9] [µg/mL]	CC50 at 48 h [4] [µg/mL]	other results
C[C@@H]1CC[C@H]2[C@@H](C)C(=O)O[C@@H]3O[C@@]4(C)CC[C@@H]1[C@]32OO4 [Artemisinin, reference compound]	–	–	–	IC50 [1, 6]: 14.66 ± 0.11 nM; IC50 [2, 6]: 18.9 ± 0.13 nM
CCN(CC)CCCC(C)Nc1ccnc2cc(Cl)ccc12 (centres unmarked) [Chloroquine, reference compound]	–	–	–	IC50 [1]: 4.36 ± 0.53 nM; IC50 [2]: 133 ± 0.16 nM
COC(=O)c1cc(O)c(O)c(O)c1 [DES4, methyl 3,4,5-trihydroxybenzoate]	–	–	–	IC50 Dd2 [3]: 0.56 µg/mL (≈ 3.04 µM)
COc1cc(O)c2c(=O)c3c(C)cc(O)cc3oc2c1 [compound 2, Griseoxanthone C]	–	–	–	IC50 ([1]; 72 h): > 25 µg/mL; IC50 ([2]; 72 h): > 25 µg/mL; CC50 at 48 h [4, 7]: > 100 µg/mL
COc1c(O)cc2c(=O)oc3c(OC)c(O)cc4c(=O)oc1c2c34 [compound 3, 3,3′-O-dimethylellagic acid]	1.17 ± 0.04	1.36 ± 0.14	> 100	Resistance Index (RI) [5]: 1.16; antiplasmodial activity class on both Pf3D7 and PfDd2 [5]: pronounced (IC50 ≤ 5 μg/mL: pronounced activity)
COc1cc2c(=O)oc3c(OC)c(O)cc4c(=O)oc(c1OC)c2c34 [compound 4, 3,3′,4-tri-O-methylellagic acid]	> 25	0.63 ± 0.27	> 100	–
COc1c(O)cc2c(=O)oc3c(OC)c(OC4OCC(O)C(OC(=O)c5cc(O)c(O)c(O)c5)C4O)cc4c(=O)oc1c2c34 [compound 5, 3,3″-di-O-methylellagic acid 4-O-(3″-galloyl)-β-D-xylopyranoside]	1.86 ± 0.18	1.76 ± 0.14	> 100	Resistance Index (RI) [5]: 1.12
O=C(O)c1ccc(O)c(O)c1 [compound 6, 3,4-dihydroxybenzoic acid]	–	–	–	IC50 ([1]; 72 h): > 25 µg/mL; IC50 ([2]; 72 h): 17.09 ± 0.06 µg/mL; antiplasmodial activity class on PfDd2 [2]: moderate (10 < IC50 ≤ 20 μg/mL: moderate activity); CC50 at 48 h [4, 7]: > 100 µg/mL
CCCCCC(=O)Cc1cc(OC)cc(O)c1C(=O)Oc1cc(CCCCC)c(C(=O)O)c(OC)c1 [compound 7, Confluentic acid]	> 25	> 25	> 100	–
CCCCCCCCCCCCCCCCCCCCCCCC(=O)OCC(O)CO (centres unmarked) [compound 8, Glyceryl-1-tetracosanoate]	> 25	> 25	> 100	–
CC(=O)OCC(Cc1ccccc1)NC(=O)C(Cc1ccccc1)NC(=O)c1ccccc1 (centres unmarked) [compound 9, Auranthiamide acetate]	> 25	> 25	> 100	–
CCOC(=O)c1cc(O)c(O)c(O)c1 [compound 10, Ethyl gallate]	1.15 ± 0.1	2.86 ± 0.07	> 100	Resistance Index (RI) [5]: 2.48; antiplasmodial activity class on both Pf3D7 and PfDd2 [5]: pronounced (IC50 ≤ 5 μg/mL: pronounced activity)
CC(=O)O[C@H]1CC[C@]2(C)[C@H]3CC=C4[C@@H]5CC(C)(C)CC[C@]5(C)CC[C@@]4(C)[C@]3(C)CC[C@H]2C1(C)C [compound 11, β-amyrin acetate]	> 25	> 25	> 100	–
CC1(C)CC[C@]2(C)CC[C@]3(C)C(=CC[C@@H]4[C@@]5(C)CC[C@H](O)C(C)(C)[C@@H]5CC[C@]43C)[C@@H]2C1 [compound 12, β-amyrin]	> 25	> 25	–	–
C/C(=C/CCC(C)C1CCC2(C)C3=CCC4C(C)(C)C(=O)CCC4(C)C3CCC12C)C(=O)O (centres unmarked) [compound 13, 3-oxo-lanosta-7,24-Z-dien-26-oid acid]	> 25	14.21 ± 0.11	–	antiplasmodial activity class on PfDd2 [2]: moderate (10 < IC50 ≤ 20 μg/mL: moderate activity); CC50 at 48 h ([4]; RAW 264.7 macrophage cells, Raw cells, 48 h, resazurin, read-out: CC50): > 100 µg/mL
